The values below come from patent US20220251079A1, “BENZO[B][1,8]NAPHTHYRIDINE ACETIC ACID DERIVATIVES AND METHODS OF USE” (STINGTHERA, INC., priority 2019, published 2022).

Bounds are passed on as bounds.

Experiment [1] has as its target T1, human STING protein (140-379) (Homo sapiens, UniProt Q86WV6, H232R).
T1 construct: 6XHIS-SUMO-hSTING (140-379); made in house; host or cells: BL-21(DE3) E. coli, pET vector
Put plainly: Radiometric filtration binding competition assay (WT_FBA_HIS-SUMO-hSWAT). The following applies: read-out: WT-hSWAT IC50. How it is done: A radiometric filtration binding competition assay was performed to quantify the binding affinity of compounds of the present application for the human or mouse STING protein, or associated HAQ human isoform. The competition format filtration binding assay detects the ability of small molecule compounds from binding to and inhibiting the subsequent binding of a tritiated [H3] […] The resulting dose response was fit by non-linear regression to determine an IC50 value, from which a Ki value for each compound was extrapolated.
Briefly, the recombinant C-terminal ligand binding domain of the human STING protein (140-379) or mouse STING protein (139-328) [0.5 μM] was incubated in the presence of a compound of the present application (8 point, 2 fold dilution starting at 300 μM) for 30 min or under control conditions. […] The resulting complexes were then filtered, dried, and scintillation fluid was added and the remaining radio signal was measured to determine the degree of compound ligand inhibition. This assay format was optimized for both the WT and HAQ isoforms of the human protein and the mouse orthologue protein.
Parameters optimized: • a. Form of protein: 6×HIS-SUMO tag or untagged • b. Concentration of target protein: Minimum concentration that achieved >80 max signal • c. Assay DMSO concentration: 10%-0.1% • d. Assay Buffer: Base (Tris or phosphate), Salt concentration, +/−Tween (0.1-2%) • e. […] Probe Concentration: Minimum concentration that achieved max assay window • g. Assay Format: Scintillation Proximity Bead or Filtration Binding Plate • h. Assay Plate: 384 vs 96 well format • i. Assay incubation times for successive incubation steps
WT-hSWAT: WT_FBA_HIS-SUMO-hSWAT IC50 (μM) (“WT”=Wild-type); and WT-mSWAT: MOUSE_FBA_HIS-SUMO-mSWAT C50 (μM) which is the mouse isoform of STING protein.

The target of a further experiment is T2, hSTING-R232 (Homo sapiens, UniProt Q86WV6, H232R).
T2 construct: recombinant mouse or human STING protein (aa140-379); 6xHis-SUMO elsewhere) (cleaved yes); made in house
Put plainly: STING Differential Scanning Fluorimetry (DSF) assay, human. Format: binding. The following applies: human STING R232-WT, 5 μM protein. How it is done: A STING DSF assay was performed to determine protein thermostability shift in response to small molecule ligand binding. A STING thermostability shift assay based on differential scanning fluorimetry was used to measure (1) the net shift in melting temperature (ΔTm)between the apo and ligand-bound states of the STING protein and (2) the concentration of the thermal denaturation transition (FC50) as a surrogate measure of binding affinity (Kd). Briefly, recombinant mouse or human STING protein (aa140-379) comprising the C-terminal binding domain (R232-WT) were purified by affinity chromatography and further processed to remove the purification tag, followed by gel filtration to achieve purity >95%. Protein in assay buffer was transferred to a 384 well plate and incubated with the hydrophobic fluorescent dye SYBR Orange. A temperature ramp was applied to the plate and the resulting dye fluorescence was plotted as a function of temperature. The first derivative of this function (dF/dT) was then used to extrapolate the melting temperature of the protein at various concentrations of compound and determine the thermal denaturation profile of a protein/compound complex.
2. 5 μM purified Target STING Protein
4. Buffer: 100 mM NaCl, 30 mM HEPES, pH 7.5
5. Thermal Ramp: 0.5° C./min
7. 11 point, 2 fold dilution, duplicate, 300 μM high concentrations

Another experiment concerns the target T3, STING protein (Homo sapiens, UniProt Q86WV6, H232R).
T3 construct: host or cells: THP-1 dual reporter cells, TMEM173 modified from HAQ to R232 (THP1-dual-KI R232)
Put plainly: Cell based reporter assay of IRF activation (THP1-dual-KI R232, IRF luciferase). The following applies: THP-1; read-out: THP1-dual-KI R232_IRF(Luciferase)_Activity Maximum measured (%). From the text:
Cell reporter assays were developed to measure the ability of compounds of the application to activate the STING protein and activate both IRF/IFN and the NFkB signaling pathways in the myeloid derived cell line THP-1, which is commercially available from several suppliers. Briefly, THP-1 monocytes were transfected and selected for stable integration of 2 reporter constructs. Clones incorporating stably integrated vectors were further selected by antibiotic resistance to blastocidin and zeocin. The reporter constructs included: (1) firefly luciferase reporter gene under the control of an ISG54 promoter fused to five interferon (IFN)-stimulated response elements to measure IRF transcription factor binding activity and (2) secreted embryonic alkaline phosphatase reporter gene under transcription control of an IFN-beta minimal promoter fused to 5 copies of the NFkB consensus transcriptional response element and 3 copies of the c-Rel binding site.
The resulting THP-1 cell line was further modified to incorporate 3 amino acid point mutations (H71R A230G Q293R). This modification of the native TMEM173 gene in THP-1 cells (HAQ) was designed to produce a cell reporter that expressed the most common allelic variant in the human population (THP-1 R232, available from InvivoGen). Alternatively, the TMEM173 gene was knocked out to provide a congenic control to counter-screen for compound activation that was independent of the STING protein (THP-1 STING KO).
Once cell lines were established, reporter assay protocols were developed and optimized to screen small molecule compounds for agonist activity. Assay optimization for efficacy and Z′ value included titration of the following parameters:
1. No pre-activation with PMA
2. […]cells/well in 96 well plate format
7. Cell Titer Glo reagent (Promega) following supermatant removal
9. 8 point, 2 fold, duplicate starting at 150 μM PP28T

T3 sequence (Q86WV6 whole entry H232R): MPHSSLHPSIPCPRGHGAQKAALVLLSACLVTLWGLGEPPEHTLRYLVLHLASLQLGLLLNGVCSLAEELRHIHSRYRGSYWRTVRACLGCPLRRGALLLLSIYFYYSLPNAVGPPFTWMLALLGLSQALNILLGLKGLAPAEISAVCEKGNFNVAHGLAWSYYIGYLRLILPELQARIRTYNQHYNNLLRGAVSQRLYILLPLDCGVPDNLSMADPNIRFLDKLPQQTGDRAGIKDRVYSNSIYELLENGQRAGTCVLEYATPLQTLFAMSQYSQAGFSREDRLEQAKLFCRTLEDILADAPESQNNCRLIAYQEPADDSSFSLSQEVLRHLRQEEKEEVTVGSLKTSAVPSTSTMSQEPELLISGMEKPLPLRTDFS
T2 sequence (Q86WV6 140-379 H232R): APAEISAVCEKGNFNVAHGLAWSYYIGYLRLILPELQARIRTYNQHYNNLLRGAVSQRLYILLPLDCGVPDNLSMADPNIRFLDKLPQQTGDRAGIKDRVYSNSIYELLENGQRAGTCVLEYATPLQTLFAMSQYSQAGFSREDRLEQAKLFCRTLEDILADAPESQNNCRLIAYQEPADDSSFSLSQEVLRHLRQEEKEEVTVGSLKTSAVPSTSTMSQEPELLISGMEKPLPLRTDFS
T1 sequence (Q86WV6 140-379 H232R): as above

`CSc1c(Cl)ccc2c(=O)c3ccc(N(CC4CC4)CC4CC(F)(F)C4)nc3n(CC(=O)O)c12` [Compound 37, sodium 2-(8-chloro-2-((Cyclopropylmethyl)((3,3-difluorocyclobutyl)methyl)amino)-9-(methylthio)-5-oxobenzo[b][1,8]naphthyridin-10(5H)-yl)acetate]: the IC50 in experiment [1] fell in the range of 20 to 100 µM. The “WT_DSF_hSWAT Tm Shift (° C.)” value on hSTING-R232 is recorded as “D (“D” > 7° C.)”. Further, on STING protein, the Emax is above 50%.

`CSc1c(Cl)ccc2c(=O)c3ccc(N(CC4CC4)CC4COC4)nc3n(CC(=O)O)c12` [Compound 38, sodium 2-(8-chloro-2-((cyclopropylmethyl)(oxetan-3-ylmethyl)amino)-9-(methylthio)-5-oxobenzo[b][1,8]naphthyridin-10(5H)-yl)acetate]: in experiment [1], the IC50 was in the range of 20 to 100 µM. The “WT_DSF_hSWAT Tm Shift (° C.)” value at hSTING-R232 is “D (“D” > 7° C.)”. The Emax on STING protein is above 50%.

Consider `COC1CC(CN(C)c2ccc3c(=O)c4ccc(Cl)c(SC)c4n(CC(=O)O)c3n2)C1` (stereo not drawn) [Compound 39, Sodium 2-(8-chloro-2-(((3-methoxycyclobutyl)methyl)(methyl)amino)-9-(methylthio)-5-oxobenzo[b][1,8]naphthyridin-10(5H)-yl)acetate], for which, in experiment [1], the IC50 is 20 to 100 µM. The “WT_DSF_hSWAT Tm Shift (° C.)” value on hSTING-R232 is listed as “D (“D” > 7° C.)”. Moreover, the Emax on STING protein is above 50%.

On to `COC1CC(CN(CC2CC2)c2ccc3c(=O)c4ccc(Cl)c(SC)c4n(CC(=O)O)c3n2)C1` (stereo not drawn) [Compound 40, sodium 2-(8-chloro-2-((cyclopropylmethyl)((3-methoxycyclobutyl)methyl)amino)-9-(methylthio)-5-oxobenzo[b][1,8]naphthyridin-10(5H)-yl)acetate], for which, in experiment [1], the IC50 lay within 20 to 100 µM. Moreover, on hSTING-R232, the “WT_DSF_hSWAT Tm Shift (° C.)” value was “D (“D” > 7° C.)”. For the same compound, the Emax on STING protein was above 50%.

Consider `CSc1c(Cl)ccc2c(=O)c3ccc(N(C)C4CC(F)(F)C4)nc3n(CC(=O)O)c12` [Compound 41, Sodium 2-(8-chloro-2-((3,3-difluorocyclobutyl)(methyl)amino)-9-(methylthio)-5-oxobenzo[b][1,8]naphthyridin-10(5H)-yl)acetate], for which the IC50 in experiment [1] is 20 to 100 µM. In addition, the “WT_DSF_hSWAT Tm Shift (° C.)” value on hSTING-R232 was “D (“D” > 7° C.)”. Moreover, the Emax on STING protein was above 50%.

`CSc1c(Cl)ccc2c(=O)c3ccc(N(CC4CC4)C4CC(F)(F)C4)nc3n(CC(=O)O)c12` [Compound 42, sodium 2-(8-chloro-2-((cyclopropylmethyl)(3,3-difluorocyclobutyl)amino)-9-(methylthio)-5-oxobenzo[b][1,8]naphthyridin-10(5H)-yl)acetate]: the IC50 in experiment [1] lay within 20 to 100 µM. The “WT_DSF_hSWAT Tm Shift (° C.)” value at hSTING-R232 is reported as “D (“D” > 7° C.)”. In addition, the Emax on STING protein was above 50%.

Take `CO[C@H]1C[C@@H](N(CC2CC2)c2ccc3c(=O)c4ccc(Cl)c(SC)c4n(CC(=O)O)c3n2)C1` [Compound 43, sodium 2-(8-chloro-2-((cyclopropylmethyl)(3-methoxycyclobutyl)amino)-9-(methylthio)-5-oxobenzo[b][1,8]naphthyridin-10(5H)-yl)acetate]: the IC50 in experiment [1] was below 20 µM. Also, the “WT_DSF_hSWAT Tm Shift (° C.)” value on hSTING-R232 is reported as “D (“D” > 7° C.)”. The Emax at STING protein is above 50%.

With `CSc1c(Cl)ccc2c(=O)c3ccc(N(C)C4CC(OC(F)F)C4)nc3n(CC(=O)O)c12` (stereo not drawn) [Compound 45, Sodium 2-(8-chloro-2-((3-(difluoromethoxy)cyclobutyl)(methyl)amino)-9-(methylthio)-5-oxobenzo[b][1,8]naphthyridin-10(5H)-yl)acetate], the IC50 in experiment [1] lay within 20 to 100 µM. At hSTING-R232, the “WT_DSF_hSWAT Tm Shift (° C.)” value is “D (“D” > 7° C.)”. In addition, the Emax at STING protein was above 50%.

As for `CSc1c(Cl)ccc2c(=O)c3ccc(N(CC4CC4)C4CC(OC(F)F)C4)nc3n(CC(=O)O)c12` (stereo not drawn) [Compound 46, sodium 2-(8-chloro-2-((cyclopropylmethyl)(3-(difluoromethoxy)cyclobutyl)amino)-9-(methylthio)-5-oxobenzo[b][1,8]naphthyridin-10(5H)-yl)acetate], the IC50 in experiment [1] was below 20 µM. In addition, on hSTING-R232, the “WT_DSF_hSWAT Tm Shift (° C.)” value was “D (“D” > 7° C.)”. Also, the Emax on STING protein was above 50%.

On to `CSc1c(Cl)ccc2c(=O)c3ccc(N(C)C4CC5(CCC5)C4)nc3n(CC(=O)O)c12` [Compound 47, sodium 2-(8-chloro-2-(methyl(spiro[3.3]heptan-2-yl)amino)-9-(methylthio)-5-oxobenzo[b][1,8]naphthyridin-10(5H)-yl)acetate], for which the concentration for half-maximal inhibition (IC50) in experiment [1] was below 20 µM. Moreover, the “WT_DSF_hSWAT Tm Shift (° C.)” value at hSTING-R232 is “D (“D” > 7° C.)”. Further, the Emax at STING protein is above 50%.

In the case of `CSc1c(Cl)ccc2c(=O)c3ccc(N(C)C4CC(C)(C)C4)nc3n(CC(=O)O)c12` [Compound 48, sodium 2-(8-chloro-2-((3,3-dimethylcyclobutyl)(methyl)amino)-9-(methylthio)-5-oxobenzo[b][1,8]naphthyridin-10(5H)-yl)acetate], the IC50 in experiment [1] is below 20 µM. The “WT_DSF_hSWAT Tm Shift (° C.)” value at hSTING-R232 was “D (“D” > 7° C.)”. Besides, the Emax on STING protein is above 50%.

With `CSc1c(Cl)ccc2c(=O)c3ccc(N(C)C4CC(C#N)C4)nc3n(CC(=O)O)c12` (stereo not drawn) [Compound 49, sodium 2-(8-chloro-2-((3-cyanocyclobutyl)(methyl)amino)-9-(methylthio)-5-oxobenzo[b][1,8]naphthyridin-10(5H)-yl)acetate], in experiment [1], the IC50 lay within 20 to 100 µM. The “WT_DSF_hSWAT Tm Shift (° C.)” value at hSTING-R232 was “D (“D” > 7° C.)”. For the same compound, the Emax on STING protein is above 50%.

`COCCN(CC(F)(F)F)c1ccc2c(=O)c3ccc(Cl)c(SC)c3n(CC(=O)O)c2n1` [Compound 50, sodium 2-(8-chloro-2-((2-methoxyethyl)(2,2,2-trifluoroethyl)amino)-9-(methylthio)-5-oxobenzo[b][1,8]naphthyridin-10(5H)-yl)acetate]: the IC50 in experiment [1] lay in the range of 20 to 100 µM. For the same compound, the “WT_DSF_hSWAT Tm Shift (° C.)” value at hSTING-R232 is listed as “D (“D” > 7° C.)”. Moreover, the Emax on STING protein is above 50%.

For the compound `COCCN(CC(F)F)c1ccc2c(=O)c3ccc(Cl)c(SC)c3n(CC(=O)O)c2n1` [Compound 51, sodium 2-(8-chloro-2-((2,2-difluoroethyl)(2-methoxyethyl)amino)-9-(methylthio)-5-oxobenzo[b][1,8]naphthyridin-10(5H)-yl)acetate], in experiment [1], the IC50 was in the range of 20 to 100 µM. Also, at hSTING-R232, the “WT_DSF_hSWAT Tm Shift (° C.)” value is reported as “D (“D” > 7° C.)”. Further, the Emax at STING protein is above 50%.
